The results in this text go back to ChEMBL document CHEMBL1944566, “Conjugation of cell-penetrating peptides leads to identification of anti-HIV peptides from matrix proteins” (Bioorg Med Chem, 2012).

Active and inactive are the calls of the source. No cut-off for these calls is given here. Where a SMILES comes first, the peptide text is derived from it. The star is where a group is joined. Cam = NC(=O)C*

Data set [1] can be described thus: Cytotoxicity against human MT4 cells after 5 days by MTT assay. The class given is cell-based. (In general: Tetrazolium dyes change colour on reduction, which living cells bring about.)
The subject of data set [2] is Human immunodeficiency virus 1. In words: Antiviral activity against X4 tropic HIV1 NL4-3 in MT4 cells assessed as protection from virus-induced cytopathogenicity at 25 uM after 5 days by MTT assay. The format is functional, organism-based. Background: Protection from cytopathic effect is a common read-out in antiviral testing.
The subject of data set [3] is Human immunodeficiency virus 1. In words: Antiviral activity against R5 tropic HIV1 NL(AD8) in PM1/CCR5 cells assessed as protection from virus-induced cytopathogenicity after 5 days by MTT assay. The class given is functional, organism-based. Conditions: Human immunodeficiency virus 1, NL(AD8), PM1/CCR5, 120 h.
Data set [4] has as its system Human immunodeficiency virus 1. In words: Antiviral activity against X4 tropic HIV1 NL4-3 in MT4 cells assessed as protection from virus-induced cytopathogenicity after 5 days by MTT assay. The class given is functional, organism-based. Conditions: Human immunodeficiency virus 1, NL4-3, MT4, 120 h.
Data set [5] deals with Human immunodeficiency virus 1. Description: Antiviral activity against R5 tropic HIV1 JR-CSF in PM1/CCR5 cells assessed as protection from virus-induced cytopathogenicity measuring capsid p24 level after 5 days by ELISA. The class given is functional, cell-based. Particulars: Human immunodeficiency virus 1, JRCSF ISOLATE, PM1/CCR5, 120 h.
The nature of data set [6]: Solubility in PBS buffer. The class given is physicochemical.
The subject of data set [7] is Human immunodeficiency virus 1. Description: Antiviral activity against X4 tropic HIV1 NL4-3 in MT4 cells assessed as protection from virus-induced cytopathogenicity at 12.5 uM after 5 days by MTT assay. The format is functional, organism-based.
In data set [8] the test system is Human immunodeficiency virus 1. In words: Antiviral activity against R5 tropic HIV1 NL(AD8) in PM1/CCR5 cells assessed as protection from virus-induced cytopathogenicity at 25 uM after 5 days by MTT assay. Particulars: Human immunodeficiency virus 1, NL(AD8), PM1/CCR5, 120 h. The format is functional.
Data set [9] concerns Human immunodeficiency virus 1. In words: Antiviral activity against R5 tropic HIV1 NL(AD8) in PM1/CCR5 cells assessed as protection from virus-induced cytopathogenicity at 50 uM after 5 days by MTT assay. The format is functional. Conditions: Human immunodeficiency virus 1, NL(AD8), PM1/CCR5, 120 h.

By CC50 is commonly meant the concentration at which the toxic effect on the cells reaches its halfway point. Higher therefore signals better tolerance by the cells. The inhibition is how much of the control response was suppressed. As a reminder, the EC50 is the concentration needed to bring the measured effect to its halfway point.

`CC[C@H](C)[C@H](NC(=O)[C@H](Cc1cnc[nH]1)NC(=O)[C@H](CCCCN)NC(=O)[C@H](CC(C)C)NC(=O)[C@H](CCCCN)NC(=O)[C@H](Cc1ccc(O)cc1)NC(=O)[C@H](CCC(N)=O)NC(=O)[C@H](CCCCN)NC(=O)[C@H](CCCCN)NC(=O)CNC(=O)CNC(=O)[C@@H]1CCCN1C(=O)[C@H](CCCNC(=N)N)NC(=O)[C@H](CC(C)C)NC(C)=O)C(=O)N[C@H](C(=O)NCC(=O)N[C@@H](CSCC(=O)N[C@@H](CCCNC(=N)N)C(=O)N[C@@H](CCCNC(=N)N)C(=O)N[C@@H](CCCNC(=N)N)C(=O)N[C@@H](CCCNC(=N)N)C(=O)N[C@@H](CCCNC(=N)N)C(=O)N[C@@H](CCCNC(=N)N)C(=O)N[C@@H](CCCNC(=N)N)C(=O)N[C@@H](CCCNC(=N)N)C(N)=O)C(N)=O)C(C)C` displayed a cytotoxic concentration (CC50) at 120 h in data set [1] of 36 µM. The inhibition entry in data set [2] is “inactive”.

With `CC[C@H](C)[C@H](NC(=O)[C@H](CCCNC(=N)N)NC(=O)[C@H](CCC(N)=O)NC(=O)[C@H](Cc1cnc[nH]1)NC(=O)[C@@H](NC(=O)[C@H](CO)NC(=O)[C@H](Cc1ccc(O)cc1)NC(=O)[C@H](CC(C)C)NC(=O)[C@@H](NC(=O)[C@H](C)NC(=O)[C@@H](NC(=O)[C@@H](NC(C)=O)[C@@H](C)O)[C@@H](C)CC)C(C)C)C(C)C)C(=O)N[C@@H](CC(=O)O)C(=O)N[C@H](C(=O)N[C@@H](CCCCN)C(=O)NCC(=O)N[C@@H](CSCC(=O)N[C@@H](CCCNC(=N)N)C(=O)N[C@@H](CCCNC(=N)N)C(=O)N[C@@H](CCCNC(=N)N)C(=O)N[C@@H](CCCNC(=N)N)C(=O)N[C@@H](CCCNC(=N)N)C(=O)N[C@@H](CCCNC(=N)N)C(=O)N[C@@H](CCCNC(=N)N)C(=O)N[C@@H](CCCNC(=N)N)C(N)=O)C(N)=O)C(C)C`, the 50% effective concentration (EC50) in [3] came out at 0.43 µM; in [4], 2.1 µM; in [5], 0.58 µM. The same compound yielded a 50% cytotoxic concentration (CC50) at 120 h in data set [1] of 5.7 µM. Also, the solubility result in data set [6] is recorded as “soluble”.

As to `CC(=O)N[C@@H](CC(=O)O)C(=O)N[C@H](C(=O)NCC(=O)N[C@@H](CC(N)=O)C(=O)N[C@@H](CC(N)=O)C(=O)N[C@@H](CO)C(=O)N[C@@H](CCC(N)=O)C(=O)N[C@H](C(=O)N[C@@H](CO)C(=O)N[C@@H](CCC(N)=O)C(=O)N[C@@H](CC(N)=O)C(=O)N[C@@H](Cc1ccc(O)cc1)C(=O)NCC(=O)N[C@@H](CS)C(N)=O)C(C)C)[C@@H](C)O`, in data set [6], the solubility entry is recorded as “Insoluble”.

`CC[C@H](C)[C@H](NC(=O)[C@H](CCCCN)NC(=O)[C@H](CC(=O)O)NC(=O)[C@H](CC(C)C)NC(=O)[C@H](C)NC(=O)[C@H](CCC(=O)O)NC(=O)[C@H](CCCCN)NC(=O)[C@@H](NC(=O)[C@H](CC(=O)O)NC(=O)[C@H](CCCCN)NC(=O)[C@@H](NC(=O)[C@H](CC(=O)O)NC(=O)[C@@H](NC(=O)[C@H](CCCNC(=N)N)NC(C)=O)[C@@H](C)CC)C(C)C)[C@@H](C)O)C(=O)N[C@@H](CCC(=O)O)C(=O)NCC(=O)N[C@@H](CSCC(N)=O)C(N)=O`: in [1], half-maximal cytotoxicity (CC50 at 120 h) was put at 17 µM. Further, in data set [7], the inhibition result was “inactive”.

`CC[C@H](C)[C@H](NC(=O)[C@H](Cc1cnc[nH]1)NC(=O)[C@H](CCCCN)NC(=O)[C@H](CC(C)C)NC(=O)[C@H](CCCCN)NC(=O)[C@H](Cc1ccc(O)cc1)NC(=O)[C@H](CCC(N)=O)NC(=O)[C@H](CCC(=O)O)NC(=O)[C@H](Cc1c[nH]c2ccccc12)NC(=O)[C@H](CCCCN)NC(=O)[C@H](CC(=O)O)NC(=O)[C@H](CC(C)C)NC(=O)[C@H](CCC(=O)O)NC(=O)CNC(C)=O)C(=O)N[C@H](C(=O)NCC(=O)N[C@@H](CSCC(=O)N[C@@H](CCCNC(=N)N)C(=O)N[C@@H](CCCNC(=N)N)C(=O)N[C@@H](CCCNC(=N)N)C(=O)N[C@@H](CCCNC(=N)N)C(=O)N[C@@H](CCCNC(=N)N)C(=O)N[C@@H](CCCNC(=N)N)C(=O)N[C@@H](CCCNC(=N)N)C(=O)N[C@@H](CCCNC(=N)N)C(N)=O)C(N)=O)C(C)C`: the 50% cytotoxic concentration (CC50) at 120 h in [1] turned out to be 36 µM. In data set [2], the inhibition entry was “inactive”.

On to `CC[C@H](C)[C@H](NC(=O)[C@@H](NC(=O)[C@H](CC(N)=O)NC(=O)[C@H](Cc1ccc(O)cc1)NC(=O)[C@H](CC(C)C)NC(=O)[C@H](CO)NC(=O)[C@H](CCCNC(=N)N)NC(=O)[C@H](CC(C)C)NC(=O)[C@H](CCC(=O)O)NC(=O)[C@H](CCC(=O)O)NC(=O)[C@H](CO)NC(=O)CNC(C)=O)[C@@H](C)O)C(=O)N[C@@H](C)C(=O)N[C@H](C(=O)N[C@@H](CC(C)C)C(=O)NCC(=O)N[C@@H](CSCC(=O)N[C@@H](CCCNC(=N)N)C(=O)N[C@@H](CCCNC(=N)N)C(=O)N[C@@H](CCCNC(=N)N)C(=O)N[C@@H](CCCNC(=N)N)C(=O)N[C@@H](CCCNC(=N)N)C(=O)N[C@@H](CCCNC(=N)N)C(=O)N[C@@H](CCCNC(=N)N)C(=O)N[C@@H](CCCNC(=N)N)C(N)=O)C(N)=O)C(C)C`, for which the concentration giving a half-maximal response (EC50) in data set [3] is 5.8 µM; in data set [4], 2.3 µM; in [5] it was 7.8 µM. In addition, the 50% cytotoxic concentration (CC50) at 120 h in [1] is 9 µM. In [6], the solubility result is recorded as “soluble”.

Turning to `CC(=O)N[C@@H](CO)C(=O)N[C@@H](CCCCN)C(=O)N[C@@H](CCCCN)C(=O)N[C@@H](CCCCN)C(=O)N[C@@H](C)C(=O)N[C@@H](CCC(N)=O)C(=O)N[C@@H](CCC(N)=O)C(=O)N[C@@H](C)C(=O)N[C@@H](C)C(=O)N[C@@H](C)C(=O)N[C@@H](CC(=O)O)C(=O)N[C@H](C(=O)NCC(=O)N[C@@H](CC(N)=O)C(=O)N[C@@H](CC(N)=O)C(=O)NCC(=O)N[C@@H](CSCC(=O)N[C@@H](CCCNC(=N)N)C(=O)N[C@@H](CCCNC(=N)N)C(=O)N[C@@H](CCCNC(=N)N)C(=O)N[C@@H](CCCNC(=N)N)C(=O)N[C@@H](CCCNC(=N)N)C(=O)N[C@@H](CCCNC(=N)N)C(=O)N[C@@H](CCCNC(=N)N)C(=O)N[C@@H](CCCNC(=N)N)C(N)=O)C(N)=O)[C@@H](C)O`, in data set [8], the inhibition at 25 µM is 30%. The EC50 in [4] came out at 41 µM; in data set [5] it was 27 µM. The cytotoxic concentration (CC50) at 120 h in data set [1] is more than 50 µM.

In data set [1], `CC[C@H](C)[C@H](NC(=O)[C@H](Cc1cnc[nH]1)NC(=O)[C@H](CCCCN)NC(=O)[C@H](CC(C)C)NC(C)=O)C(=O)N[C@H](C(=O)N[C@@H](Cc1c[nH]c2ccccc12)C(=O)N[C@@H](C)C(=O)N[C@@H](CO)C(=O)N[C@@H](CCCNC(=N)N)C(=O)N[C@@H](CCC(=O)O)C(=O)N[C@@H](CC(C)C)C(=O)N[C@@H](CCC(=O)O)C(=O)N[C@@H](CCCNC(=N)N)C(=O)N[C@@H](Cc1ccccc1)C(=O)N[C@@H](C)C(=O)NCC(=O)N[C@@H](CSCC(N)=O)C(N)=O)C(C)C` (Ac-LKHIVWASRELERFAGC(Cam)-NH2) showed a CC50 at 120 h of 14 µM. Further, the inhibition entry in data set [7] is “inactive”.

For `CC[C@H](C)[C@H](NC(=O)[C@H](CCC(N)=O)NC(=O)[C@H](CCCNC(=N)N)NC(=O)[C@H](CO)NC(=O)CNC(=O)[C@H](CCC(=O)O)NC(=O)[C@H](CO)NC(=O)[C@@H](NC(=O)[C@H](CCC(=O)O)NC(=O)[C@H](CC(C)C)NC(C)=O)[C@@H](C)O)C(=O)N[C@@H](CC(C)C)C(=O)NCC(=O)N[C@@H](CCC(N)=O)C(=O)N[C@@H](CC(C)C)C(=O)N[C@@H](CCC(N)=O)C(=O)NCC(=O)N[C@@H](CSCC(=O)N[C@@H](CCCNC(=N)N)C(=O)N[C@@H](CCCNC(=N)N)C(=O)N[C@@H](CCCNC(=N)N)C(=O)N[C@@H](CCCNC(=N)N)C(=O)N[C@@H](CCCNC(=N)N)C(=O)N[C@@H](CCCNC(=N)N)C(=O)N[C@@H](CCCNC(=N)N)C(=O)N[C@@H](CCCNC(=N)N)C(N)=O)C(N)=O`, the EC50 in [4] is 40 µM; in data set [5], 31 µM. This compound registered a CC50 at 120 h in data set [1] of more than 50 µM. Further, the inhibition at 50 µM in data set [9] came to 49%.
